In patent US20050037097A1, “PYRUVATE ENRICHED ONION EXTRACT” (priority 2003, published 2005):

Experiments:
[1] = Inhibition (%) of ABTS radical generation; type: biochemical; settings: concentration was 0.005 mg/mL (footnote)
Procedure: All reagents used in this assay were prepared in phosphate buffered saline (PBS, 10 mM, pH 7.4). Sample solutions were prepared in PBS.
[…] Reaction was triggered by the addition of 120 μL of 10 mM hydrogen peroxide. Absorbance data of the reaction mixture were recorded after 10 min using a spectrophotometer set at 734 nm. Quercetin was used as a reference antioxidant.

[2] = Total reducing power (pre-formed ABTS radical); type: biochemical; settings: concentration was 0.005 mg/mL (footnote)
Procedure: ABTS radical was generated by mixing 5 mL of an aqueous ABTS solution (7 mM) and 88 μL of a potassium persulfate solution (140 mM), followed by the standing in the dark for 6 h. This stock solution (1.1 mL) was diluted to 90 mL with PBS (pH 7.4) and the absorbance adjusted to 0.83. […] Absorbance at 734 nm was measured after 10 min. Quercetin was used as a reference antioxidant. Total reducing power (TRP, %) was calculated using the following equations: […]+PBS(%)=[(Abs0 min-Abs10 min)/Abs0 min]*100 TRPSample=([…]

[3] = Oxygen radical absorbance capacity (ORAC), β-carotene retention; type: biochemical; settings: concentration was 0.005 mg/mL (footnote); PBS control 28
Procedure: A solution of 2,2′-azobis-(2-amidinopropane) dihydrochloride (AAPH, 0.5 M) was prepared in degassed distilled water and a β-carotene solution was prepared by centrifuging 10 mg of β-carotene in 10 mL of acetone followed by a one-fold dilution of the supernatant with the same solvent. β-carotene (60 μL) and 0.6% (w/v) phosphate buffered Tween 20 containing 0.3% (w/v) of linoleic acid (120 μL) were mixed with 935 μL of PBS in a quartz cuvette and incubated for 2 min at 50° C. 10 μL of sample solution (final assay concentration of 454 μg/mL) and AAPH (25 μL) were added into the cuvette and the reaction was monitored for 10 min using a spectrophotometer set at 452 nm. Quercetin was used as a reference antioxidant. Cuvette was maintained at 50° C. all times except when the measurement is being taken. Percentage β-carotene retention was calculated using the following equation: % β-carotene retention=100−[(Abs0 min−Abs5 min)*100 Abs0 min]

[4] = Stability determination of pyruvate (pyruvate loss with or without hydrogen peroxide); type: physicochemical

SMILES	% inhibition of ABTS radical generation [1] [%]	% TRP (total reducing power) [2] [%]	% TRP (ORAC in terms of β-Carotene retention) [3] [%]	pyruvate loss ([4]; with added hydrogen peroxide) [%]	pyruvate loss ([4]; without added hydrogen peroxide) [%]
O=c1c(O)c(-c2ccc(O)c(O)c2)oc2cc(O)cc(O)c12 [Quercetin]	23	30	55		
CC(=O)C(=O)O [pyruvic acid]				11	26
